Values of other authors in patent US6617125B2, “Compositions for enhanced catalyzed reporter deposition” (PerkinElmer Life Sciences, Inc., priority 2001, dated 2003).

What was measured:
HRP [1] = conditions: substrate guaiacol; Whitaker and Tappel 1962
HRP [2] = target: T1, HRP (Armoracia rusticana, UniProt P00433)
T1 sequence (P00433 31-338 limits assumed): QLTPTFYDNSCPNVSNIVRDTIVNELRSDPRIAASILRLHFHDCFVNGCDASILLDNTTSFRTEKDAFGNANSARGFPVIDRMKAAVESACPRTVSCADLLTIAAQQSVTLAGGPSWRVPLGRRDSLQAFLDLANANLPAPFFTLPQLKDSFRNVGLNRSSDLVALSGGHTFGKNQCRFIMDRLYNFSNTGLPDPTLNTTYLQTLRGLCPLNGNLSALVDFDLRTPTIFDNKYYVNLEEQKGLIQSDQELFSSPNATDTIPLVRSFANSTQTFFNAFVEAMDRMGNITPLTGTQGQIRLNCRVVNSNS

| Compound | enhancement of the oxidation of guaiacol (HRP [1]) | effect on the oxidation of 4-chloro-1-naphthol (HRP [2]; substrate 4-chloro-1-naphthol, de Jong et al. 1985) | enhancement of the oxidation of p-phenylenediamine-pyrocatechol (HRP [2]; substrate combination p-phenylenediamine-pyrocatechol, de Jong et al. 1985) | enhancement of the oxidation of diaminobenzidine (HRP [2]; substrate diaminobenzidine, de Jong et al. 1985) | effect on substrates which form covalently depositable products (HRP [2]; substrates which form covalently depositable products) |
| --- | --- | --- | --- | --- | --- |
| O=S(=O)([O-])[O-].[Na+].[Na+] [Na2SO4] | enhance |  |  |  |  |
| c1c[nH]cn1 [imidazole] |  | no effect | two | approximately four | no effect |
| [Cl-].[Na+] [NaCl] | enhance |  |  |  |  |
| [Cl-].[K+] [KCl] | enhance |  |  |  |  |
